Test results reported in ChEMBL document CHEMBL1156770, “X-ray crystallographic analysis of alpha-ketoheterocycle inhibitors bound to a humanized variant of fatty acid amide hydrolase” (J Med Chem, 2010).

Target: T1, Fatty-acid amide hydrolase 1 (Homo sapiens, UniProt O00519)
T1 sequence (O00519 whole entry): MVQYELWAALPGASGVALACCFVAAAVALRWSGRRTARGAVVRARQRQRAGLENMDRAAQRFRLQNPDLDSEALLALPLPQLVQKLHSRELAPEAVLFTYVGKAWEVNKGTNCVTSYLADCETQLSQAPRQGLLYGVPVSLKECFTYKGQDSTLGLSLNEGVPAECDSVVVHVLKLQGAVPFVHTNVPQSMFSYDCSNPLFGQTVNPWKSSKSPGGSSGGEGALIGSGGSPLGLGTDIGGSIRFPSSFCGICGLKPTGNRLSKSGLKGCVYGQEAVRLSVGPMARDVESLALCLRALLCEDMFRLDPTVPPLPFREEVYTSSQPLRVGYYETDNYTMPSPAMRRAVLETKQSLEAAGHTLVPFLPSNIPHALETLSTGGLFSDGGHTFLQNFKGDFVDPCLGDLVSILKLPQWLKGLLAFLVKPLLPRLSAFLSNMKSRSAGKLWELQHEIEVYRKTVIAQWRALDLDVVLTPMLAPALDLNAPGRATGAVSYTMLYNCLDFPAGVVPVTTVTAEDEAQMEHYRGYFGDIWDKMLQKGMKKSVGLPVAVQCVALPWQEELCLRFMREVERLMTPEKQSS
Test: Inhibition of FAAH

Ki: 3 nM
Compound: CCCCCCCC/C=C\CCCCCCCC(=O)c1ncc(-c2ccccn2)o1
